How the values were obtained:
HT1080 = test: MTS proliferation assay, HT1080; format: cell-based, human; details: HT1080, 72 h incubation; read-out: MTS proliferation assay IC 50 HT1080
How it was run: (§1)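 Seed cells (1.5*10^3-10^4/well) 24 h ahead; add compound, final 10/3/1/0.3 μM; incubate 72 h, 37 °C, 7.5% CO2; MTS 3 h; read A492.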

MRC5 = test: MTS proliferation assay, MRC5; format: cell-based; details: MRC5, 72 h incubation; read-out: MTS proliferation assay IC 50 MRC5
How it was run: (§2)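 RPMI-1640 + 5% or 10% FCS; seeded 24 h pre-dose; cpd final 10/3/1/0.3 μM, max 5% DMSO in added volume; 72 h, 37° C, 7.5% CO2; MTS 3 h; A492.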

HeLa = test: MTS proliferation assay, HeLa; format: cell-based, human; details: 72 h incubation, read-out: MTS proliferation assay IC 50 HeLa
How it was run: as §1

[1] = system: adherent cells or suspension cells; test: Hoechst 33342 nuclear staining (fraction of apoptotic nuclei); format: cell-based; set-up: key: 0 relating to no activity; 1 relating to weak activity comprising less than 70% of the cells; score 2 relating to strong activity comprising more than 70% of the cells
Jurkat = test: MTS proliferation assay, Jurkat; format: cell-based, human; details: 72 h incubation, read-out: MTS proliferation assay IC 50 Jurkat
How it was run: as §1

Jily = test: MTS proliferation assay, Jily; format: cell-based; details: 72 h incubation, read-out: MTS proliferation assay IC 50 Jily
How it was run: as §2

Row | SMILES | IC50 (HT1080) [nM] | IC50 (HeLa) [nM] | IC50 (Jurkat) [nM] | IC50 (MRC5) [nM] | Hoechst 33342 nuclear staining score ([1]; HeLa, conc 0.01 μm) | Hoechst 33342 nuclear staining score ([1]; HeLa, conc 0.1 μm) | Hoechst 33342 nuclear staining score ([1]; HeLa, conc 1 μm) | Hoechst 33342 nuclear staining score ([1]; Jily, conc 0.01 μm) | Hoechst 33342 nuclear staining score ([1]; Jily, conc 0.1 μm) | Hoechst 33342 nuclear staining score ([1]; Jily, conc 1 μm) | Hoechst 33342 nuclear staining score ([1]; Jurkat, conc 0.01 μm) | Hoechst 33342 nuclear staining score ([1]; Jurkat, conc 0.1 μm) | Hoechst 33342 nuclear staining score ([1]; Jurkat, conc 1 μm) | Hoechst 33342 nuclear staining score ([1]; MRC5, conc 0.01 μm) | Hoechst 33342 nuclear staining score ([1]; MRC5, conc 0.1 μm) | Hoechst 33342 nuclear staining score ([1]; MRC5, conc 1 μm) | Hoechst 33342 nuclear staining score ([1]; PBLs, conc 0.01 μm) | Hoechst 33342 nuclear staining score ([1]; PBLs, conc 0.1 μm) | Hoechst 33342 nuclear staining score ([1]; PBLs, conc 1 μm) | IC50 (Jily) [nM] | further results
1 | Nc1nonc1-c1nc2ccccc2n1CC(=O)c1ccc(C(F)(F)F)cc1 [Example 43] | 100 to 1000 | 100 to 1000 | 100 to 1000 | 100 to 1000 | 0 | 0 | 1 (1 relating to weak activity comprising less than 70% of the cells) | 0 | 0 | 1 (1 relating to weak activity comprising less than 70% of the cells) | 0 | 0 | 2 (score 2 relating to strong activity comprising more than 70% of the cells) | 0 | 0 | 1 (1 relating to weak activity comprising less than 70% of the cells) | 0 | 0 | 0 | 100 to 1000 | 
2 | Nc1nonc1-c1nc2ccccc2n1CC(=O)c1ccc2c(c1)OCO2 [Example 45] | 10 to 100 | 10 to 100 | 10 to 100 | 100 to 1000 | 0 | 1 (1 relating to weak activity comprising less than 70% of the cells) | 2 (score 2 relating to strong activity comprising more than 70% of the cells) | 0 | 2 (score 2 relating to strong activity comprising more than 70% of the cells) | 2 (score 2 relating to strong activity comprising more than 70% of the cells) | 0 | 2 (score 2 relating to strong activity comprising more than 70% of the cells) | 2 (score 2 relating to strong activity comprising more than 70% of the cells) | 0 | 0 | 2 (score 2 relating to strong activity comprising more than 70% of the cells) | 0 | 0 | 0 | 10 to 100 | Hoechst 33342 nuclear staining score ([1]; H460, conc 0.01 μm): 0; Hoechst 33342 nuclear staining score ([1]; H460, conc 0.1 μm): 2 (score 2 relating to strong activity comprising more than 70% of the cells); Hoechst 33342 nuclear staining score ([1]; H460, conc 1 μm): 2 (score 2 relating to strong activity comprising more than 70% of the cells)
3 | N#CCCNc1nonc1-c1nc2ccccc2n1CC(=O)c1ccc2ccccc2c1 [Example 46] | 10 to 100 | 10 to 100 | < 10 | 100 to 1000 | 0 | 0 | 2 (score 2 relating to strong activity comprising more than 70% of the cells) | 0 | 2 (score 2 relating to strong activity comprising more than 70% of the cells) | 2 (score 2 relating to strong activity comprising more than 70% of the cells) | 0 | 2 (score 2 relating to strong activity comprising more than 70% of the cells) | 2 (score 2 relating to strong activity comprising more than 70% of the cells) | 0 | 0 | 2 (score 2 relating to strong activity comprising more than 70% of the cells) | 0 | 0 | 0 | 10 to 100 | Hoechst 33342 nuclear staining score ([1]; H460, conc 0.01 μm): 0; Hoechst 33342 nuclear staining score ([1]; H460, conc 0.1 μm): 0; Hoechst 33342 nuclear staining score ([1]; H460, conc 1 μm): 2 (score 2 relating to strong activity comprising more than 70% of the cells)
4 | N#CCCNc1nonc1-c1nc2ccccc2n1CC(=O)c1ccc(Br)cc1 [Example 47] | 10 to 100 | 10 to 100 | < 10 | 100 to 1000 | 0 | 2 (score 2 relating to strong activity comprising more than 70% of the cells) | 2 (score 2 relating to strong activity comprising more than 70% of the cells) | 0 | 2 (score 2 relating to strong activity comprising more than 70% of the cells) | 2 (score 2 relating to strong activity comprising more than 70% of the cells) | 2 (score 2 relating to strong activity comprising more than 70% of the cells) | 2 (score 2 relating to strong activity comprising more than 70% of the cells) | 2 (score 2 relating to strong activity comprising more than 70% of the cells) | 0 | 2 (score 2 relating to strong activity comprising more than 70% of the cells) | 2 (score 2 relating to strong activity comprising more than 70% of the cells) | 0 | 0 | 0 | < 10 | Hoechst 33342 nuclear staining score ([1]; H460, conc 0.01 μm): 0; Hoechst 33342 nuclear staining score ([1]; H460, conc 0.1 μm): 2 (score 2 relating to strong activity comprising more than 70% of the cells); Hoechst 33342 nuclear staining score ([1]; H460, conc 1 μm): 2 (score 2 relating to strong activity comprising more than 70% of the cells)

Continued, in another order:

Row | IC50 (HT1080) [nM] | IC50 (HeLa) [nM] | IC50 (Jurkat) [nM] | SMILES | IC50 (MRC5) [nM] | Hoechst 33342 nuclear staining score ([1]; HeLa, conc 0.01 μm) | Hoechst 33342 nuclear staining score ([1]; HeLa, conc 0.1 μm) | Hoechst 33342 nuclear staining score ([1]; HeLa, conc 1 μm) | Hoechst 33342 nuclear staining score ([1]; Jily, conc 0.01 μm) | Hoechst 33342 nuclear staining score ([1]; Jily, conc 0.1 μm) | Hoechst 33342 nuclear staining score ([1]; Jily, conc 1 μm) | Hoechst 33342 nuclear staining score ([1]; Jurkat, conc 0.01 μm) | Hoechst 33342 nuclear staining score ([1]; Jurkat, conc 0.1 μm) | Hoechst 33342 nuclear staining score ([1]; Jurkat, conc 1 μm) | Hoechst 33342 nuclear staining score ([1]; MRC5, conc 0.01 μm) | Hoechst 33342 nuclear staining score ([1]; MRC5, conc 0.1 μm) | Hoechst 33342 nuclear staining score ([1]; MRC5, conc 1 μm) | Hoechst 33342 nuclear staining score ([1]; PBLs, conc 0.01 μm) | Hoechst 33342 nuclear staining score ([1]; PBLs, conc 0.1 μm) | Hoechst 33342 nuclear staining score ([1]; PBLs, conc 1 μm) | IC50 (Jily) [nM] | further results
5 | 10 to 100 | 10 to 100 | 10 to 100 | Nc1nonc1-c1nc2ccccc2n1CC(=O)c1ccc2ccccc2c1 [Example 42] | 100 to 1000 | 0 | 1 (1 relating to weak activity comprising less than 70% of the cells) | 2 (score 2 relating to strong activity comprising more than 70% of the cells) | 0 | 2 (score 2 relating to strong activity comprising more than 70% of the cells) | 2 (score 2 relating to strong activity comprising more than 70% of the cells) | 0 | 2 (score 2 relating to strong activity comprising more than 70% of the cells) | 2 (score 2 relating to strong activity comprising more than 70% of the cells) | 0 | 2 (score 2 relating to strong activity comprising more than 70% of the cells) | 2 (score 2 relating to strong activity comprising more than 70% of the cells) | 0 | 0 | 0 | 10 to 100 | Hoechst 33342 nuclear staining score ([1]; H460, conc 0.01 μm): 0; Hoechst 33342 nuclear staining score ([1]; H460, conc 0.1 μm): 2 (score 2 relating to strong activity comprising more than 70% of the cells); Hoechst 33342 nuclear staining score ([1]; H460, conc 1 μm): 2 (score 2 relating to strong activity comprising more than 70% of the cells)
6 | 10 to 100 | 10 to 100 | < 10 | Cc1ccc(C(=O)Cn2c(-c3nonc3N)nc3ccccc32)cc1 [Example 44] | 10 to 100 | 0 | 1 (1 relating to weak activity comprising less than 70% of the cells) | 2 (score 2 relating to strong activity comprising more than 70% of the cells) | 0 | 2 (score 2 relating to strong activity comprising more than 70% of the cells) | 2 (score 2 relating to strong activity comprising more than 70% of the cells) | 0 | 2 (score 2 relating to strong activity comprising more than 70% of the cells) | 2 (score 2 relating to strong activity comprising more than 70% of the cells) | 0 | 0 | 2 (score 2 relating to strong activity comprising more than 70% of the cells) | 0 | 0 | 0 | 10 to 100 | Hoechst 33342 nuclear staining score ([1]; H460, conc 0.01 μm): 0; Hoechst 33342 nuclear staining score ([1]; H460, conc 0.1 μm): 2 (score 2 relating to strong activity comprising more than 70% of the cells); Hoechst 33342 nuclear staining score ([1]; H460, conc 1 μm): 2 (score 2 relating to strong activity comprising more than 70% of the cells)

— patent USRE42890E1, “Furazanobenzimidazoles” (Basilea Pharmaceutica AG, priority 2003, dated 2011)
